Data published in patent US8153385B2, “Target protein and target gene in drug designing and screening method” (Reverse Proteomics Research Institute Co., Ltd., priority 2004, dated 2012).

Target: T1, FLJ13397 clone-derived protein (CARP) (Homo sapiens, UniProt Q9H8M7)
T1 construct: A human full-length cDNA clone was expressed as a protein with an N-terminal His tag; His tag (pDEST17 Gateway vector) (N); made in house; host or cells: Escherichia coli BL21star(DE3)pLysS
T1 sequence (Q9H8M7 1-445): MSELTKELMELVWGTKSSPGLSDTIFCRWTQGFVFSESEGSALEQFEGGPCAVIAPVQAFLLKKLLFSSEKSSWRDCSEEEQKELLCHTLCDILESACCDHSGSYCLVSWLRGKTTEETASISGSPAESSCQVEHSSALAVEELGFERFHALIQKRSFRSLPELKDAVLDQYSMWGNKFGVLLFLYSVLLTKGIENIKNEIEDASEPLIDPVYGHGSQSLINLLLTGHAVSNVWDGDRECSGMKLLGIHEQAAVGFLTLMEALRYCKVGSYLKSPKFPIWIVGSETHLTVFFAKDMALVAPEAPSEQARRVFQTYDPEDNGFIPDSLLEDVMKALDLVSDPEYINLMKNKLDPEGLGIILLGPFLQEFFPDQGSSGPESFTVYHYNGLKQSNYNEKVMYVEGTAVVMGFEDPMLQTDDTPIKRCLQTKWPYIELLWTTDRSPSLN
Experiment: SEC/MS (size exclusion chromatography / mass analysis) interaction analysis between FLJ13397 clone-derived protein and compounds
Type: binding
Description: BP-reaction was performed on human full-length cDNA clone and the cloning vector Gateway pDONR201 by the PCR cloning method using the Invitrogen Gateway system to yield an entry clone. LR-reaction was performed on this entry clone with the destination vector pDEST17 (Gateway System) and LR Clonase at 25° C. for 60 minutes to yield an expression plasmid. Escherichia coli competent cell BL21star(DE3)pLysS were transformed with this expression plasmid, a clone incorporating the expression vector was selected, and a frozen stock was prepared. The transformant was inoculated into LB medium and precultured, after which it was transferred into SB medium and cultured to induce the expression by IPTG, and the cells were stored frozen.
A human full-length cDNA clone was expressed as a protein with an N-terminal His tag. This clone was purified using BioRobot 8000 (Qiagen) or ACTA Crystal (Amersham). […] In the purification with ACTA Crystal, affinity purification using a HisTrap HP column was followed by gel filtration purification using the Gel Filtration Column HiLoad 16/60 or a 10/30 Superdex 75 prep grade column. The purified fraction was used for interaction analysis after being subjected to SDS-PAGE to verify the estimated molecular weight and purity.
To analyze the interactions between commonly used drugs and proteins expressed from human full-length cDNA clones while keeping both the proteins and the compounds in non-modified, non-immobilized state, size exclusion chromatography (SEC) and mass analysis were used in combination (FIGS. 1 and 2). The specific procedures are shown below.
The compound-protein mixture prepared in step 1 was subjected to chromatography using an SEC column, the compound and the protein were separated by SEC, and the bound compound or compound that interacted with the protein in the protein fraction was analyzed using a mass analyzer.
Protein concentrations were measured using BCA Protein Assay (PIERCE), in consideration of the purity calculated by SDS-PAGE.
Mass analysis was performed using LCQ DECA XP (Thermoelectron) or Q-TOFmicro (Micromass), equipped with an ESI probe. The LC pump used was Agilent 1100 (Yokogawa Analytical Systems), and the autosampler used was HTC-PAL (CTC Analytics) equipped with a cooling stacker.
In the SEC method using a 384-well spin column, Unifilter 100 (Whatman), packed with 10 μL (dry volume) of Bio-Gel P6 (BIO-RAD) and swollen with milliQ water, was used as the SEC column. […] The SEC spin column was mounted on an acetonitrile-aliquoted 384-well U-bottom plate and centrifuged; the SEC spin column filtrate, which is a protein fraction, was retrieved in 50% acetonitrile. The protein precipitate produced by the acetonitrile was removed via centrifugation and filtration for protein removal; the resulting filtrate was concentrated by centrifugation and re-dissolved in 10 μL of 50% methanol to obtain a mass analysis sample. The mobile phase supplied to the mass analyzer was 0.1% formic acid/50% methanol solution in the positive ion mode, and 0.1% ammonia/50% methanol solution in the negative ion mode; these mobile phases were used at a flow rate of 40 μL/min. 2-μL of mass analysis samples were injected using an autosampler at 2-Minute intervals; the mass spectral intensity of the compound was measured to obtain the spectral intensity of the pharmaceutical compound contained in the SEC spin column filtrate (protein fraction eluted from SEC).

[1] = compound 1 μM, protein 0 μM (protein-free reference)
[2] = compound 1 μM, protein 23.75 μM
[3] = compound 10 μM, protein 0 μM (protein-free reference)
[4] = compound 10 μM, protein 23.75 μM
[5] = compound 10 μM, protein 47.5 μM
[6] = compound 100 μM, protein 0 μM (protein-free reference)
[7] = compound 100 μM, protein 23.75 μM
[8] = compound 100 μM, protein 47.5 μM
[9] = compound 250 μM, protein 0 μM (protein-free reference)
[10] = compound 250 μM, protein 23.75 μM
[11] = compound 250 μM, protein 47.5 μM

Row | spectrum intensity of the extracted mass range (compound in SEC spin column filtrate) [1] | spectrum intensity of the extracted mass range (compound in SEC spin column filtrate) [2] | spectrum intensity of the extracted mass range (compound in SEC spin column filtrate) (compound 1 μM, protein 47.5 μM) | spectrum intensity of the extracted mass range (compound in SEC spin column filtrate) [3] | spectrum intensity of the extracted mass range (compound in SEC spin column filtrate) [4] | spectrum intensity of the extracted mass range (compound in SEC spin column filtrate) [5] | spectrum intensity of the extracted mass range (compound in SEC spin column filtrate) [6] | spectrum intensity of the extracted mass range (compound in SEC spin column filtrate) [7] | spectrum intensity of the extracted mass range (compound in SEC spin column filtrate) [8] | spectrum intensity of the extracted mass range (compound in SEC spin column filtrate) [9] | spectrum intensity of the extracted mass range (compound in SEC spin column filtrate) [10] | spectrum intensity of the extracted mass range (compound in SEC spin column filtrate) [11] | interaction with the FLJ13397-expressed protein (judgement) (judged from increase of spectrum intensity with doses of compound and protein) | SMILES
1 | 825049 | 360734 | 484482 | 1750199 | 1437041 | 1664928 | 36160236 | 53411123 | 52719227 | 91113992 | 98334673 | 159174682 |  | CCCS(=O)(=O)c1ccc2[nH]c(N)nc2c1 [2-Amino-5-N-Propylsulphonylbenzimidazole, 2-Amino-5-N-propylsulphonylbenzimidazole]
2 | 1817431 | 1889743 | 1281933 | 2641416 | 9434699 | 8393491 | 241452949 | 175843248 | 549040113 | 644365611 | 1389061661 | 1700398168 | concentration-dependent interaction | CC(C)(C)c1ccc(C(O)CCCN2CCC(C(O)(c3ccccc3)c3ccccc3)CC2)cc1 (stereo not shown) [Terfenadine]
3 | 23723676 | 29471243 | 35025210 | 28662280 | 41004899 | 42911925 | 106348780 | 160312456 | 180803127 | 128622627 | 264420112 | 506800735 |  | COC(=O)Nc1nc2ccc([S+]([O-])c3ccccc3)cc2[nH]1 (stereo not shown) [Oxfendazole]

Row | SMILES | spectrum intensity of the extracted mass range (compound in SEC spin column filtrate) [1] | spectrum intensity of the extracted mass range (compound in SEC spin column filtrate) [2] | spectrum intensity of the extracted mass range (compound in SEC spin column filtrate) (compound 1 μM, protein 47.5 μM) | spectrum intensity of the extracted mass range (compound in SEC spin column filtrate) [3] | spectrum intensity of the extracted mass range (compound in SEC spin column filtrate) [4] | spectrum intensity of the extracted mass range (compound in SEC spin column filtrate) [5] | spectrum intensity of the extracted mass range (compound in SEC spin column filtrate) [6] | spectrum intensity of the extracted mass range (compound in SEC spin column filtrate) [7] | spectrum intensity of the extracted mass range (compound in SEC spin column filtrate) [8] | spectrum intensity of the extracted mass range (compound in SEC spin column filtrate) [9] | spectrum intensity of the extracted mass range (compound in SEC spin column filtrate) [10] | spectrum intensity of the extracted mass range (compound in SEC spin column filtrate) [11] | interaction with the FLJ13397-expressed protein (judgement) (judged from increase of spectrum intensity with doses of compound and protein)
4 | Oc1ccc(CCN2CCC(Nc3nc4ccccc4n3Cc3ccc(F)cc3)CC2)cc1 [Desmethyl-astemizole] | 12076364 | 10091649 | 10876345 | 6489161 | 12628724 | 26276867 | 85510154 | 141884756 | 225675004 | 135192715 | 339921213 | 728918987 | 
